Source: patent US20210107874A1, “PHARMACEUTICAL FORMULATION OF CROTONYLAMINOPYRIDINE SALT” (priority 2017, published 2021)
Read-outs that look alike come from different tables or passages of the source.

Experiment: PK studies of formulations, plasma by HPLC-MS/MS
Assay type: in vivo
Details: Cattle; for AUC / Cmax / Tmax: bovine, plasma; for AUC: read-out: AUC; for Cmax: read-out: Cmax; for Tmax: read-out: Tmax
Procedure: The following formulations were prepared and administered to animals. Blood samples were collected at pre-defined time points and the amount of compound present in plasma at the time of sampling was determined by HPLC-MS/MS. Pharmacokinetic parameters were then calculated: Cmax, Tmax, Tlast, AUC. [table]

[1] = sc, 1 mg/kg, FormR50 (L-tartaric acid, 2-pyrrolidone, NaOH, water), 1 mg/kg
[2] = sc, 1 mg/kg, FormS50 (L-tartaric acid, sodium carboxymethyl cellulose, 2-pyrrolidone, NaOH, water), 1 mg/kg
[3] = sc, 1 mg/kg, pH 4.4, FormO60 (FormO type: L-tartaric acid, NaOH to pH 4.4, water), 1 mg/kg
[4] = sc, 1 mg/kg, pH 4.4, FormT50 (DL-Lactic acid, hydrochloric acid up to pH 4.4, water), 1 mg/kg
[5] = sc, 1.25 mg/kg, Form A50 (NMP, propylene glycol, water), 1.25 mg/kg
[6] = sc, 1.25 mg/kg, Form B62.5 (dimethyl acetamide, propylene glycol, water), 1.25 mg/kg
[7] = sc, 1.25 mg/kg, FormC62.5 (propylene glycol, ethanol, Transcutol P), 1.25 mg/kg
[8] = sc, 1.25 mg/kg, FormD62.5 (PEG 300, ethanol, Transcutol P), 1.25 mg/kg
[9] = sc, 1.25 mg/kg, FormE62.5 (polyethylene glycol 300, ethyl alcohol 96%, water), 1.25 mg/kg
[10] = sc, 1.25 mg/kg, FormF62.5 (polyethylene glycol, 1-octanol, 2-pyrrolidone), 1.25 mg/kg
[11] = sc, 1.25 mg/kg, FormG62.5 (benzyl alcohol, ethyl alcohol 96%, polyethylene glycol 300), 1.25 mg/kg
[12] = sc, 1.25 mg/kg, FormH62.5 (DMA, DMSO, 2-pyrrolidone), 1.25 mg/kg
[13] = sc, 1.25 mg/kg, FormK62.5 (2-pyrrolidone, Transcutol P, ethyl lactate), 1.25 mg/kg
[14] = sc, 1.25 mg/kg, FormL50 (DMA, propylene glycol, water), 1.25 mg/kg
[15] = sc, 1.25 mg/kg, FormP62.5 (L-tartaric acid, 2-pyrrolidone, NaOH, water), 1.25 mg/kg
[16] = sc, 1.25 mg/kg, pH 4.3, FormQ62.5 (L-tartaric acid, sodium carboxymethyl cellulose, NaOH up to pH 4.3, water), 1.25 mg/kg
[17] = sc, 1.25 mg/kg, pH 4.4, Form O62.5 (FormO type: L-tartaric acid, NaOH to pH 4.4, water), 1.25 mg/kg
[18] = sc, 1.25 mg/kg, pH 4.6, FormM62.5 (L-tartaric acid, sodium hydroxide up to pH 4.6, water), 1.25 mg/kg
[19] = FormJ62.5 (DMSO, 2-pyrrolidone, ethyl lactate), SC, 1.25 mg/kg

CCOc1cc(NCCNC(=O)/C=C/C(F)(F)F)ccn1 [Compound 4, (E)-N-[2-[(2-ethoxy-4-pyridyl)amino]ethyl]-4,4,4-trifluoro-but-2-enamide]
Tlast (FormR50 (L-tartaric acid, 2-pyrrolidone, NaOH, water), SC, 1 mg/kg): 6.67 h | Tlast (FormS50 (L-tartaric acid, sodium carboxymethyl cellulose, 2-pyrrolidone, NaOH, water), SC, 1 mg/kg): 8.67 h | Tlast (FormT50 (DL-Lactic acid, hydrochloric acid up to pH 4.4, water), SC, 1 mg/kg): 3.67 h | AUC [1]: 248 ng·h/mL | Cmax [1]: 59.4 ng/mL | Tmax [1]: 60 min | AUC [2]: 339 ng·h/mL | Cmax [2]: 69.3 ng/mL | Tmax [2]: 79.8 min | AUC [3]: 302 ng·h/mL | Cmax [3]: 374 ng/mL | Tmax [3]: 15 min | AUC [4]: 293 ng·h/mL | Cmax [4]: 281 ng/mL | Tmax [4]: 25.2 min | AUC [5]: 204 ng·h/mL | Cmax [5]: 127 ng/mL | Tmax [5]: 26.4 min | AUC [6]: 98.2 ng·h/mL | Cmax [6]: 37.4 ng/mL | Tmax [6]: 30 min | AUC [7]: 130 ng·h/mL | Cmax [7]: 46.4 ng/mL | Tmax [7]: 39.6 min | AUC [8]: 63.2 ng·h/mL | Cmax [8]: 25.4 ng/mL | Tmax [8]: 55.2 min | AUC [9]: 76.4 ng·h/mL | Cmax [9]: 45.7 ng/mL | Tmax [9]: 25.2 min | AUC [10]: 78.5 ng·h/mL | Cmax [10]: 15.2 ng/mL | Tmax [10]: 37.8 min | AUC [11]: 44.8 ng·h/mL | Cmax [11]: 12.5 ng/mL | Tmax [11]: 140 min | AUC [12]: 88.2 ng·h/mL | Cmax [12]: 42.1 ng/mL | Tmax [12]: 40.2 min | AUC [13]: 86 ng·h/mL | Cmax [13]: 29.9 ng/mL | Tmax [13]: 49.8 min | AUC [14]: 59.8 ng·h/mL | Cmax [14]: 28.1 ng/mL | Tmax [14]: 40.2 min | AUC [15]: 322 ng·h/mL | Cmax [15]: 94.2 ng/mL | Tmax [15]: 49.8 min | AUC [16]: 356 ng·h/mL | Cmax [16]: 297 ng/mL | Tmax [16]: 34.8 min | AUC [17]: 358 ng·h/mL | Cmax [17]: 300 ng/mL | Tmax [17]: 30 min | AUC [18]: 336 ng·h/mL | Cmax [18]: 350 ng/mL | Tmax [18]: 15 min | AUC [19]: 99.6 ng·h/mL | Cmax [19]: 37.1 ng/mL | Tmax [19]: 110 min
